From ChEMBL document CHEMBL3421625, “Discovery and optimization of novel antagonists to the human neurokinin-3 receptor for the treatment of sex-hormone disorders (Part I)” (J Med Chem, 2015)
Values after ≈ are worked out from the molar mass of the structure shown.

Key:
[1] = Lipophilicity, log D of the compound at pH 7.4; type: physicochemical; settings: buffer, read-out: logD
[2] = Solubility of the compound in PBS buffer at pH 7.4 by shake-flask method; type: physicochemical
Cytochrome P450 3A4 = Cytochrome P450 3A4 (Homo sapiens, UniProt P08684); experiment: Inhibition of CYP3A4 (unknown origin) by luciferase reporter assay in presence of NADPH regeneration system; type: ADME
Cytochrome P450 2D6 = Cytochrome P450 2D6 (Homo sapiens, UniProt P10635); experiment: Inhibition of CYP2D6 (unknown origin) by luciferase reporter assay in presence of NADPH regeneration system; type: ADME
Cytochrome P450 2C9 = Cytochrome P450 2C9 (Homo sapiens, UniProt P11712); experiment: Inhibition of CYP2C9 (unknown origin) by luciferase reporter assay in presence of NADPH regeneration system; type: ADME
Cytochrome P450 2C19 = Cytochrome P450 2C19 (Homo sapiens, UniProt P33261); experiment: Inhibition of CYP2C19 (unknown origin) by luciferase reporter assay in presence of NADPH regeneration system
Cytochrome P450 1A2 = target: T1, Cytochrome P450 1A2 (Homo sapiens, UniProt P05177); experiment: Inhibition of CYP1A2 (unknown origin) by luciferase reporter assay in presence of NADPH regeneration system; type: ADME
T1 sequence (P05177 whole entry): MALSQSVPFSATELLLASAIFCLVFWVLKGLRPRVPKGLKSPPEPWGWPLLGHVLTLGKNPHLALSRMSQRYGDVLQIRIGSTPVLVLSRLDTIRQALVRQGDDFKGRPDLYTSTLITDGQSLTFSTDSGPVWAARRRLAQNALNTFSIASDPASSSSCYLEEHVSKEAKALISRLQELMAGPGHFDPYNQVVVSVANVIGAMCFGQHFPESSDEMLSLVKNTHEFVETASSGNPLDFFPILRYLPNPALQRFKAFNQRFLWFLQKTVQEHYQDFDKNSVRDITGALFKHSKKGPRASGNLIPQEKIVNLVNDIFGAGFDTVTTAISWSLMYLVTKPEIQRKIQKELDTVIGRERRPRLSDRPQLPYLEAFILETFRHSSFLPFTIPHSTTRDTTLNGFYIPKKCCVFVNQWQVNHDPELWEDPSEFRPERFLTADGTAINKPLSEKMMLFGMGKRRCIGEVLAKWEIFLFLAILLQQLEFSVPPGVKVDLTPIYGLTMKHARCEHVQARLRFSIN

Substance-K receptor [3] = target: T2, Substance-K receptor (Homo sapiens, UniProt P21452); experiment: Displacement of [125I]-neurokinin A from human NK2R after 90 mins by scintillation counting analysis
T2 sequence (P21452 whole entry): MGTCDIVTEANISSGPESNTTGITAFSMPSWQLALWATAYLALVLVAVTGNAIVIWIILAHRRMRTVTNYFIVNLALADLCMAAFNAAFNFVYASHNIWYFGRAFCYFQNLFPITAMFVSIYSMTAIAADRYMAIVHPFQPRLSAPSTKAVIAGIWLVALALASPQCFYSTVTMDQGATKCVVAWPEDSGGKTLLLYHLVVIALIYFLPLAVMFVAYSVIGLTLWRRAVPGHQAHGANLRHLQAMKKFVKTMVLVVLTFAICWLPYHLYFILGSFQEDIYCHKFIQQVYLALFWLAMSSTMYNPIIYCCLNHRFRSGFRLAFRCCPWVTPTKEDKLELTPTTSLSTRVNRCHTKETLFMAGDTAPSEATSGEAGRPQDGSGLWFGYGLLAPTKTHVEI

[4] = target: Kappa-type opioid receptor (Homo sapiens) (UniProt P41145); experiment: Inhibition of KOR (unknown origin) at 10 uM relative to control
[5] = Fraction unbound in rat plasma at 5 uM after 4 hrs by equilibrium dialysis method; type: ADME, cell-free
[6] = Apparent permeability across apical to basolateral side in human Caco2 cells in presence of 0.1% bovine serum albumin; settings: Caco-2
[7] = Apparent permeability across basolateral to apical side in human Caco2 cells in presence of 0.1% bovine serum albumin; settings: Caco-2
[8] = Total systemic clearance in Sprague-Dawley rat at 1 mg/kg, iv by LC-MS/MS analysis; type: ADME, organism-based; design: dose 1 mg/kg, route intravenous; settings: in vivo
Rattus norvegicus [9] = experiment: Unbound AUC in Sprague-Dawley rat at 1 mg/kg, iv by LC-MS/MS analysis; type: ADME, organism-based; design: dose 1 mg/kg, route intravenous; settings: in vivo
Rattus norvegicus [10] = experiment: Unbound AUC in Sprague-Dawley rat at 3 mg/kg, po by LC-MS/MS analysis; type: ADME, organism-based; design: dose 3 mg/kg, route oral; settings: in vivo
Rattus norvegicus [11] = experiment: Unbound Cmax in Sprague-Dawley rat at 3 mg/kg, po by LC-MS/MS analysis; type: ADME, organism-based; design: dose 3 mg/kg, route oral; settings: in vivo
[12] = Fraction unbound in rat brain at 5 uM after 4 hrs by equilibrium dialysis method; type: ADME, tissue-based
[13] = Ratio of unbound drug level in brain to plasma in Sprague-Dawley rat at 1 mg/kg, iv measured at 10 mins; settings: brain and plasma
[14] = Ratio of unbound drug level in brain to plasma in Sprague-Dawley rat at 1 mg/kg, iv measured at 60 mins; settings: brain and plasma
Neuromedin-K receptor [15] = target: T3, Neuromedin-K receptor (Homo sapiens, UniProt P29371)
T3 sequence (P29371 whole entry): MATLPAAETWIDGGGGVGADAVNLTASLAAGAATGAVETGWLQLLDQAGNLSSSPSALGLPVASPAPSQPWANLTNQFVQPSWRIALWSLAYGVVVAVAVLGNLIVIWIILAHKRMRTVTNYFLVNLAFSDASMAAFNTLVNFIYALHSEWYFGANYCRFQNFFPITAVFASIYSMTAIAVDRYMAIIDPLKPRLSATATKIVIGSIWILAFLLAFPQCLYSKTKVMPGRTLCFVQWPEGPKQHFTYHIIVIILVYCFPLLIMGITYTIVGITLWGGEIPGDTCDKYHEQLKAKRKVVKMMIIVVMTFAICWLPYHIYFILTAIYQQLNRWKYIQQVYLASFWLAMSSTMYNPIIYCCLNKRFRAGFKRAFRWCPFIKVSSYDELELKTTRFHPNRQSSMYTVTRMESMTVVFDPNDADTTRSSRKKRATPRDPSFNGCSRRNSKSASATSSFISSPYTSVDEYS

NK-3 receptor = target: T4, NK-3 receptor (Macaca mulatta, UniProt Q2WGM0)
T4 sequence (Q2WGM0 whole entry): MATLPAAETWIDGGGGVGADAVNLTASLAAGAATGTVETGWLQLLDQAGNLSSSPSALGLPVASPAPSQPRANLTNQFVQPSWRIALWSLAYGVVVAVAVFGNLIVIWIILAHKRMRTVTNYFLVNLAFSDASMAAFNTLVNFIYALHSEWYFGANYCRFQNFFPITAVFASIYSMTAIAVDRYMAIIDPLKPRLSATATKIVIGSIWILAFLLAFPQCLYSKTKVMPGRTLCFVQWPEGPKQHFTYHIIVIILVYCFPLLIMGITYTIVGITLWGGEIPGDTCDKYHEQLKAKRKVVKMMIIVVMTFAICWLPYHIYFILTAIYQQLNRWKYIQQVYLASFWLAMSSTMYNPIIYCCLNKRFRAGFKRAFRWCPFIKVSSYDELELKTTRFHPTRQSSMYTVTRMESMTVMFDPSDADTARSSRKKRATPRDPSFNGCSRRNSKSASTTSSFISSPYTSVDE
Description: Displacement of [3H]-SB222200 from monkey NK3R after 90 mins by scintillation counting analysis

Neuromedin-K receptor [16] = target: T5, Neuromedin-K receptor (Rattus norvegicus, UniProt P16177)
T5 sequence (P16177 whole entry): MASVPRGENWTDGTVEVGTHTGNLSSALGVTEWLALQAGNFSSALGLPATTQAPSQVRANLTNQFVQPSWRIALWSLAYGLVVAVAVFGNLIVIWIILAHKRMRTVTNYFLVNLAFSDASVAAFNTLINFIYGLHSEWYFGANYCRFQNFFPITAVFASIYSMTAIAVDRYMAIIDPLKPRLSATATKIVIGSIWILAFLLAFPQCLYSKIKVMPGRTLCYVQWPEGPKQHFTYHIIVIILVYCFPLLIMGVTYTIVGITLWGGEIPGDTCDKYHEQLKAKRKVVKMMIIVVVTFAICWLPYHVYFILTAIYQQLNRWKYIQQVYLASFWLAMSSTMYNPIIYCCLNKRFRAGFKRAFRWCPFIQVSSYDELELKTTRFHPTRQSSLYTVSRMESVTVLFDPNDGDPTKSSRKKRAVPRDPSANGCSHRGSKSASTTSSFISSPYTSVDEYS
Description: Displacement of [3H]-SB222200 from rat NK3R after 90 mins by scintillation counting analysis

Substance-P receptor = Substance-P receptor (Homo sapiens, UniProt P25103)
Description: Displacement of [3H]-Substance P from human NK1R after 90 mins by scintillation counting analysis

in vivo [17] = settings: Sprague-Dawley, rat, iv, 1 mg/kg
Description: Volume of distribution at steady state in Sprague-Dawley rat at 1 mg/kg, iv by LC-MS/MS analysis

in vivo [18] = settings: Sprague-Dawley, rat, iv, 1 mg/kg; remark: listed apart in the source
in vivo [19] = settings: Sprague-Dawley, rat, po, 3 mg/kg
in vivo [20] = settings: Sprague-Dawley, rat, po, 3 mg/kg; remark: listed apart in the source
Neuromedin-K receptor [21] = target: T3, Neuromedin-K receptor; experiment: biochemical
Description: Displacement of [3H]-SB222200 from recombinant human NK3R expressed in CHO cell membranes after 90 mins by scintillation counting analysis

Substance-K receptor [22] = target: T2, Substance-K receptor; experiment: Displacement of [125I]NKA from human NK2R expressed in CHO cell membranes after 90 mins by scintillation counting analysis
[23] = target: Voltage-gated inwardly rectifying potassium channel KCNH2 (Homo sapiens, UniProt Q12809)
Description: Inhibition of human ERG expressed in HEK293 cells after 5 mins by patch-clamp assay

[24] = target: T6, Gonadotropin-releasing hormone receptor (Homo sapiens) (UniProt P30968); experiment: Inhibition of GnRH-R (unknown origin) at 10 uM relative to control
T6 sequence (whole entry): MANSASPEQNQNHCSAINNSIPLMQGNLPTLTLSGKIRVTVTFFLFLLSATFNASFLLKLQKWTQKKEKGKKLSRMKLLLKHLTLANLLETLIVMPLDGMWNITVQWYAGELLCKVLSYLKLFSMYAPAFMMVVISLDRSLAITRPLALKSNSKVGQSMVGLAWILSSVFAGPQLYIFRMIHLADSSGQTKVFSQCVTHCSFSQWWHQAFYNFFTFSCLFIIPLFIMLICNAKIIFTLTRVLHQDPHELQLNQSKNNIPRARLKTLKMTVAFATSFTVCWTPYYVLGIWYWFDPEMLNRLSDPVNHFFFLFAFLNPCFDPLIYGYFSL

[25] = target: Neuropeptide FF receptor 1 (Homo sapiens) (UniProt Q9GZQ6); experiment: Inhibition of NPFF1 (unknown origin) at 10 uM relative to control
[26] = Half life in rat liver microsomes; type: ADME

Cytochrome P450 2C9, sequence (P11712 whole entry): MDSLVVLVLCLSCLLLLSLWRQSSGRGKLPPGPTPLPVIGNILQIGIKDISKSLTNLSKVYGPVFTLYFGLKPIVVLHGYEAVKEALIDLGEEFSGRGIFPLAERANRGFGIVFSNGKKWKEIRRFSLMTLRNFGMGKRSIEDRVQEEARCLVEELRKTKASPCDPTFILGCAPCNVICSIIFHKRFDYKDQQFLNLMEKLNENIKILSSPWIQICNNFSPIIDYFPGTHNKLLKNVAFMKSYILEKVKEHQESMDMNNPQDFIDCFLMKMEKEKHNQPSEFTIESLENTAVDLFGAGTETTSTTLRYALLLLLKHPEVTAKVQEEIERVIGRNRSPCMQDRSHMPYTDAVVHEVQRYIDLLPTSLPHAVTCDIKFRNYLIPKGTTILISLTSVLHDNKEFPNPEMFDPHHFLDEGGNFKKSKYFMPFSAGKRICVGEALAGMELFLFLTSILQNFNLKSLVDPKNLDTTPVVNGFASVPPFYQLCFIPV
Cytochrome P450 2C19, sequence (P33261 whole entry): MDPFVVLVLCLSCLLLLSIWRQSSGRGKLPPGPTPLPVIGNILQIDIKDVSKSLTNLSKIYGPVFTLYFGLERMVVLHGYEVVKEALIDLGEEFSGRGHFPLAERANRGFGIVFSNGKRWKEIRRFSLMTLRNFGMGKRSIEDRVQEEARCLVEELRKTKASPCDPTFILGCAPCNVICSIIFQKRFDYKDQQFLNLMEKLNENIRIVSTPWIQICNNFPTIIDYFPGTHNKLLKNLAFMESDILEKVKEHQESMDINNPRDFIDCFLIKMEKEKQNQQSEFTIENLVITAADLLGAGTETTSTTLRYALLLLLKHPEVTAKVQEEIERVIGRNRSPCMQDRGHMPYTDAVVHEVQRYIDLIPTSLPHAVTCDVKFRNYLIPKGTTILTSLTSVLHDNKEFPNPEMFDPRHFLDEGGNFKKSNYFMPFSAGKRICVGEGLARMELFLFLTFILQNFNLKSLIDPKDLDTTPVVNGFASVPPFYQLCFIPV
Cytochrome P450 3A4, sequence (P08684 whole entry): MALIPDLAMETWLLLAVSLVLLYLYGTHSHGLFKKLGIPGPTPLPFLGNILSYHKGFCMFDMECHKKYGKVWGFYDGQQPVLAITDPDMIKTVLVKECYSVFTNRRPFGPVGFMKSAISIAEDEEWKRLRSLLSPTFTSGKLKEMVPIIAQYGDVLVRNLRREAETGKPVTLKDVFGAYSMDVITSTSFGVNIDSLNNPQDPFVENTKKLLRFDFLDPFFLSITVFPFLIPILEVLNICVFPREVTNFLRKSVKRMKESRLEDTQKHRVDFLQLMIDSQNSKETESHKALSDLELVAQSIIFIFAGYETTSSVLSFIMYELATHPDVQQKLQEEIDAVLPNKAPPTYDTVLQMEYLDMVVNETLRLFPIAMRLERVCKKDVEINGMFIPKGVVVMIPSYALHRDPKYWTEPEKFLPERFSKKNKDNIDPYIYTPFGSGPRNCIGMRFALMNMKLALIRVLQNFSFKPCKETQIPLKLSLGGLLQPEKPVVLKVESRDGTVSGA
Kappa-type opioid receptor (Homo sapiens), sequence (P41145 whole entry): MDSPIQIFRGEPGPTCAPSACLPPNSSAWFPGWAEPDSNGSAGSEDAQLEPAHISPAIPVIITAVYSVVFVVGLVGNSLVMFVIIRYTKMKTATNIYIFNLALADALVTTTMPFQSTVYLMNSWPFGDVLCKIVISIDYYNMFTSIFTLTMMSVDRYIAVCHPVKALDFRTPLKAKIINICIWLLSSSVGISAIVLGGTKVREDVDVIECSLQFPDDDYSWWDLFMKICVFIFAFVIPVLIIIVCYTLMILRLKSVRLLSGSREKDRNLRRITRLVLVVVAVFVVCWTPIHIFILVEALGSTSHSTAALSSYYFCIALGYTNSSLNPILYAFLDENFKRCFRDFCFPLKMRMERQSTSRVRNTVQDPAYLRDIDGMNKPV
Cytochrome P450 2D6, sequence (P10635 whole entry): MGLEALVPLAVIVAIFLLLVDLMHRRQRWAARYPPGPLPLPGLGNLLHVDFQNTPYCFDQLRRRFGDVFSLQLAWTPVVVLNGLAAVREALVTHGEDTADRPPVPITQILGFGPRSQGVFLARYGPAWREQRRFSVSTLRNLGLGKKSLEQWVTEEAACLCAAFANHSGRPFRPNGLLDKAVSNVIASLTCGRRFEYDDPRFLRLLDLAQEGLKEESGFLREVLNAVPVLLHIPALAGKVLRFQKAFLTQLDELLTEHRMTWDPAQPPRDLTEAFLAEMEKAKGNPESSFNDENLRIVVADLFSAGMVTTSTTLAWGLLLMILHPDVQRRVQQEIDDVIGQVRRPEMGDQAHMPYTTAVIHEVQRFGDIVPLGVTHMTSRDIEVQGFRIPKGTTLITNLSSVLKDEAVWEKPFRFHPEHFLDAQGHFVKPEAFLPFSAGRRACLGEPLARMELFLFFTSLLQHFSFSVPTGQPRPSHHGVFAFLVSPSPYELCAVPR
Substance-P receptor, sequence (P25103 whole entry): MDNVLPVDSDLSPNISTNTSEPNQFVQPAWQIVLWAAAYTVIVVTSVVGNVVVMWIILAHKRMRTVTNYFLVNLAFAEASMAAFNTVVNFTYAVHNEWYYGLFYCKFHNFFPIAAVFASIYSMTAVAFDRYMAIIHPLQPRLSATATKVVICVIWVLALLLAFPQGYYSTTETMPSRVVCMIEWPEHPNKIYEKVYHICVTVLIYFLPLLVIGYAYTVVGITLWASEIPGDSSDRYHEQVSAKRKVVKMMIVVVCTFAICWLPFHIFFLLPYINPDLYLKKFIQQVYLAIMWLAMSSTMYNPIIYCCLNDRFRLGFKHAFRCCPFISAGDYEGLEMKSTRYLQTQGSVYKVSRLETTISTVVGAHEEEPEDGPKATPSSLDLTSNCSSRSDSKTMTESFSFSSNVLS
Neuropeptide FF receptor 1 (Homo sapiens), sequence (Q9GZQ6 whole entry): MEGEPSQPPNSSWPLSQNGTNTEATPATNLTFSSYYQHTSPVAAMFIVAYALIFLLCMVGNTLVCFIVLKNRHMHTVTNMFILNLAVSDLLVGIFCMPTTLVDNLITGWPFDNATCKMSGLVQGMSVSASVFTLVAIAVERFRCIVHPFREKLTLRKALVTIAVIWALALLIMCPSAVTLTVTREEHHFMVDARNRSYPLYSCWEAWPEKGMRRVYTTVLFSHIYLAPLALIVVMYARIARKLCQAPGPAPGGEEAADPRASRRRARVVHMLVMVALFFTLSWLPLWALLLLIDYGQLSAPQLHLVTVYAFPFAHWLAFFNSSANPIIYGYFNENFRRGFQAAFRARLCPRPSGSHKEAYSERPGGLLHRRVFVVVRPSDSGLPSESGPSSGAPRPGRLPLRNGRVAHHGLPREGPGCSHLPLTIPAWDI
Voltage-gated inwardly rectifying potassium channel KCNH2, sequence (Q12809 whole entry): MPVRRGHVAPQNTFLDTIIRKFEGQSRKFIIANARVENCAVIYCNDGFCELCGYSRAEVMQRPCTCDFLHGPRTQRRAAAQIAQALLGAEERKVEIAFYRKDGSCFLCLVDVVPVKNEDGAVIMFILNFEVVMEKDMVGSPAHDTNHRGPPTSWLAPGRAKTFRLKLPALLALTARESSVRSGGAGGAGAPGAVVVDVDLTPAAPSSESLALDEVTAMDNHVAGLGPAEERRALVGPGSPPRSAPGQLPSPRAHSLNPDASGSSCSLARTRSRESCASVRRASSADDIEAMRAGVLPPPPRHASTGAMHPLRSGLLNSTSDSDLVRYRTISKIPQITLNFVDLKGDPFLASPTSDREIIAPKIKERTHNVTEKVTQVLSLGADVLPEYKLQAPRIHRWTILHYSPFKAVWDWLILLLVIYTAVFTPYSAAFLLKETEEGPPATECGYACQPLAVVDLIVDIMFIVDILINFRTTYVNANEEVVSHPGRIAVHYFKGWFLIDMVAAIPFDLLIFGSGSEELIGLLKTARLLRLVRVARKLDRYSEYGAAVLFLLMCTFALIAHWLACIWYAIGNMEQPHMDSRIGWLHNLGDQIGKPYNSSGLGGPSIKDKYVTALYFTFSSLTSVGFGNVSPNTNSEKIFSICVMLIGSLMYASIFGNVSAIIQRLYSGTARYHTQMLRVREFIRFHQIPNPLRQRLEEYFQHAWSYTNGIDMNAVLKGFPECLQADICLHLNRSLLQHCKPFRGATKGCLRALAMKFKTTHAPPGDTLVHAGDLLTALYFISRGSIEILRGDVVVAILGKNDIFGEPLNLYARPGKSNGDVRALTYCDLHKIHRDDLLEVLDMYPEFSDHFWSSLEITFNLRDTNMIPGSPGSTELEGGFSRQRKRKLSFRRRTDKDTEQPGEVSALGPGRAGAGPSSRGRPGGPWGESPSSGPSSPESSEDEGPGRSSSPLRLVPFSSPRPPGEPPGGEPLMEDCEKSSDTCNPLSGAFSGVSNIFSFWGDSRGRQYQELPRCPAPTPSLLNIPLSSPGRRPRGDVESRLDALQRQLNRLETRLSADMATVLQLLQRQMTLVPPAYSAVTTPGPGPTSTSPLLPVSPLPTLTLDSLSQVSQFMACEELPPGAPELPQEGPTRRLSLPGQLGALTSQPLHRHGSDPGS

Row | SMILES | logD [1] | solubility thermodynamic [2] | IC50 (Cytochrome P450 3A4) | IC50 (Cytochrome P450 2D6) | IC50 (Cytochrome P450 2C9) | IC50 (Cytochrome P450 2C19) | IC50 (Cytochrome P450 1A2) | Ki (Substance-K receptor [3]) | inhibition [4] | fraction unbound at 4 h, 5 µM [5] | Papp A→B [6] | Papp B→A [7] | clearance [8] | fAUC (Rattus norvegicus [9]) | fAUC (Rattus norvegicus [10]) | fCmax (Rattus norvegicus [11]) | fraction unbound at 4 h, 5 µM [12] | IC50 (Neuromedin-K receptor [15]) | Ki (NK-3 receptor) | Ki (Neuromedin-K receptor [21]) | further results
1 | CC(C)c1nc(-c2nnc3n2CCN(C(=O)c2ccc(-c4cccs4)cc2)[C@@H]3C)co1 | 3.3 | 119 µM (≈ 51.6 µg/mL) | 43 µM | 65 µM | 14 µM | 22 µM | 81 µM | 10 µM | 41% | 0.036 | 46.4 ×10⁻⁶ cm/s | 43.8 ×10⁻⁶ cm/s | 8.2 mL/min/kg | 9.3 µM·min | 13.6 µM·min | 58.7 nM | 0.016 | 0.00398 µM | 0.00631 µM | 0.00316 µM | Kp uu at 10 min [13]: 0.2; Kp uu at 1 h [14]: 0.2; Ki (Neuromedin-K receptor [16]): 0.032 µM; Ki (Substance-P receptor): 7.94 µM; Vd (in vivo [17]): 2.6 L/kg; half-life (in vivo [18]): 3.5 h; Tmax (in vivo [19]): 1.13 h; bioavailability (in vivo [20]): 49%
2 | CSCC[C@H](NC(=O)[C@H](CC(C)C)NC(=O)CNC(=O)[C@H](Cc1ccccc1)N(C)C(=O)[C@H](Cc1ccccc1)NC(=O)[C@H](CC(=O)O)NC(=O)CCC(=O)O)C(N)=O [SENKTIDE] | – | – | – | – | – | – | – | – | – | – | – | – | – | – | – | – | – | – | – | – | Ki (Substance-K receptor [22]): > 10 µM
3 | Cc1nc(-c2nnc3n2CCN(C(=O)c2ccc(-c4cccs4)cc2)C3)cs1 | 2.9 | 172 µM (≈ 70.1 µg/mL) | 30 µM | > 100 µM | 19 µM | 15 µM | 19 µM | – | – | – | – | – | – | – | – | – | – | 0.0794 µM | – | 0.0794 µM | IC50 [23]: 27 µM
4 | Cc1noc(-c2nnc3n2CCN(C(=O)c2ccc(-c4cccs4)cc2)[C@@H]3C)n1 | 2.2 | 185 µM (≈ 75.2 µg/mL) | 55 µM | > 100 µM | 40 µM | 54 µM | 32 µM | – | 23% | 0.108 | 57.4 ×10⁻⁶ cm/s | 60.4 ×10⁻⁶ cm/s | 11.3 mL/min/kg | 23.3 µM·min | 46.3 µM·min | 272 nM | 0.084 | 0.0251 µM | 0.0251 µM | 0.0251 µM | Kp uu at 10 min [13]: 0.6; Kp uu at 1 h [14]: 0.4; Ki (Neuromedin-K receptor [16]): 0.116 µM; Vd (in vivo [17]): 1 L/kg; half-life (in vivo [18]): 1.03 h; Tmax (in vivo [19]): 0.583 h; bioavailability (in vivo [20]): 66%
5 | Cc1nsc(-c2nnc3n2CCN(C(=O)c2ccc(-c4cccs4)cc2)[C@@H]3C)n1 | – | – | – | – | – | – | – | 12.6 µM | 42% | – | – | – | – | – | – | – | – | – | 0.00631 µM | – | inhibition [24]: 35%; inhibition [25]: 24%; Ki (Substance-P receptor): 12.6 µM
6 | N#CC(c1ccccn1)c1ccnc(N2CCN(C(=O)c3ccc(F)cc3)CC2)n1 (stereo not given) | 3.4 | 1.3 µM (≈ 0.523 µg/mL) | – | < 5 µM | < 5 µM | < 5 µM | < 5 µM | – | – | – | – | – | – | – | – | – | – | 0.109 µM | – | 0.076 µM | half-life [26]: 0.217 h
